Assay results reported in publication PMC8119466, “A screen of FDA-approved drugs identifies inhibitors of protein tyrosine phosphatase 4A3 (PTP4A3 or PRL-3)” (Scientific Reports, 2021).
Counter-ions that a name gives are not always drawn. Like-named read-outs stand apart in the source and are kept apart here.

Experiments:
Type in all cases: biochemical
recombinant PRL-1 = biological target: T1, recombinant PRL-1 (Homo sapiens, UniProt Q93096); test: In vitro phosphatase assay (DiFMUP hydrolysis), PRL-1; further: test concentration or dose not given here
T1 construct: 6xHis (N, cleaved yes); made in house; host or cells: E. coli One Shot BL21 Star
T1 sequence (Q93096 1-173): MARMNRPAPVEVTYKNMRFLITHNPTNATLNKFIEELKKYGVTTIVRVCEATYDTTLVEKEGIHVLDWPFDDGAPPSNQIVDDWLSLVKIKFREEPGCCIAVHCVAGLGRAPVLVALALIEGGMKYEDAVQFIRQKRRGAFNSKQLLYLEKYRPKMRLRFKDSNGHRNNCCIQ

recombinant PRL-2 = biological target: T2, recombinant PRL-2 (Homo sapiens, UniProt Q12974); test: In vitro phosphatase assay (DiFMUP hydrolysis), PRL-2;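 further: PRL-2 activity read as DiFMUP hydrolysis after 20 min at room temperature with drug, enzyme first pre-reduced at 4 °C for 20 min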
T2 construct: 6xHis (N, cleaved yes); made in house; host or cells: E. coli One Shot BL21 Star
T2 sequence (Q12974 1-167): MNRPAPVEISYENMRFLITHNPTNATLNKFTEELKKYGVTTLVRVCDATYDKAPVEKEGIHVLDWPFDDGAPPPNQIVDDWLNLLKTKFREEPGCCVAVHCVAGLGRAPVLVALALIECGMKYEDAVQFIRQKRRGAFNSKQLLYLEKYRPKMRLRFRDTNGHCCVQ

recombinant PRL-3 = biological target: T3, recombinant PRL-3 (Homo sapiens, UniProt O75365); test: In vitro phosphatase assay (DiFMUP hydrolysis), PRL-3; further: test concentration or dose not given here
T3 construct: 6xHis (N, cleaved yes); made in house; host or cells: E. coli One Shot BL21 Star
T3 sequence (O75365 whole entry): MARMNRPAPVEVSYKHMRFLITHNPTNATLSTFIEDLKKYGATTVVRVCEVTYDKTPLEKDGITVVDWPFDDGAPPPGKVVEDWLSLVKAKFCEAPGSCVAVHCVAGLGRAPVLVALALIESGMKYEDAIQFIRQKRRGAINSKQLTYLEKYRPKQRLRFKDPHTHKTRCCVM

[1] = FDA-approved drug screen, compared to DMSO

| SMILES | % Phosphatase Activity (compared to DMSO) PRL-1 (recombinant PRL-1; [1]) | % Phosphatase Activity (compared to DMSO) PRL-2 (recombinant PRL-2; [1]) | % Phosphatase Activity (compared to DMSO) PRL-3 (recombinant PRL-3; [1]) | % Phosphatase Activity (compared to DMSO) PRL-1 (recombinant PRL-1) | % Phosphatase Activity (compared to DMSO) PRL-2 (recombinant PRL-2) | % Phosphatase Activity (compared to DMSO) PRL-3 (recombinant PRL-3) |
| --- | --- | --- | --- | --- | --- | --- |
| CCOc1ccccc1OC(c1ccccc1)C1CNCCO1.CS(=O)(=O)O (stereo not drawn) [Reboxetine mesylate] | 125% | 118% | 99% | – | – | – |
| CNC(=O)c1cc(Oc2ccc(NC(=O)Nc3ccc(Cl)c(C(F)(F)F)c3)c(F)c2)ccn1 [Regorafenib (BAY 73-4506)] | 86% | 88% | 79% | – | – | – |
| CCOc1cc(CC(=O)N[C@@H](CC(C)C)c2ccccc2N2CCCCC2)ccc1C(=O)O [Repaglinide] | 96% | 81% | 87% | – | – | – |
| COC(=O)[C@H]1[C@H]2C[C@@H]3c4[nH]c5cc(OC)ccc5c4CCN3C[C@H]2C[C@@H](OC(=O)c2cc(OC)c(OC)c(OC)c2)[C@@H]1OC [Reserpine] | 110% | 105% | 92% | – | – | – |
| CN(C)Cc1ccc(S(=O)(=O)n2ccc(/C=C/C(=O)NO)c2)cc1 [Resminostat] | 102% | 113% | 90% | – | – | – |
| Oc1cccc(O)c1 [Resorcinol] | 100% | 88% | 77% | – | – | – |
| Oc1ccc(/C=C/c2cc(O)cc(O)c2)cc1 [Resveratrol] | 107% | 112% | 84% | – | – | – |
| C=C[C@]1(C)C[C@@H](OC(=O)CS[C@@H]2C[C@H]3CC[C@@H](C2)N3C)[C@]2(C)[C@H](C)CC[C@]3(CCC(=O)[C@H]32)[C@@H](C)[C@@H]1O [Retapamulin] | 85% | 123% | 67% | – | – | – |
| NC(=O)c1ncn([C@@H]2O[C@H](CO)[C@@H](O)[C@H]2O)n1 [Ribavirin] | 105% | 108% | 83% | – | – | – |
| CO[C@H]1/C=C/O[C@@]2(C)Oc3c(C)c(O)c4c(c3C2=O)C2=NC3(CCN(CC(C)C)CC3)NC2=C(NC(=O)/C(C)=C\C=C\[C@H](C)[C@H](O)[C@@H](C)[C@@H](O)[C@@H](C)[C@H](OC(C)=O)[C@@H]1C)C4=O [Rifabutin] | 61% | 63% | 72% | – | – | – |
| CO[C@H]1/C=C/O[C@@]2(C)Oc3c(C)c(O)c4c(O)c(c(/C=N/N5CCN(C)CC5)c(O)c4c3C2=O)NC(=O)/C(C)=C\C=C\[C@H](C)[C@H](O)[C@@H](C)[C@@H](O)[C@@H](C)[C@H](OC(C)=O)[C@@H]1C [Rifampin] | 58% | 49% | 71% | – | – | – |
| CO[C@H]1/C=C/O[C@@]2(C)Oc3c(C)c(O)c4c(O)c(c(/C=N/N5CCN(C6CCCC6)CC5)c(O)c4c3C2=O)NC(=O)/C(C)=C\C=C\[C@H](C)[C@H](O)[C@@H](C)[C@@H](O)[C@@H](C)[C@H](OC(C)=O)[C@@H]1C [Rifapentine] | 61% | 57% | 74% | – | – | – |
| CO[C@H]1/C=C/O[C@@]2(C)Oc3c(C)c(O)c4c(O)c(c5c(nc6cc(C)ccn65)c4c3C2=O)NC(=O)/C(C)=C\C=C\[C@H](C)[C@H](O)[C@@H](C)[C@@H](O)[C@@H](C)[C@H](OC(C)=O)[C@@H]1C [Rifaximin] | 64% | 60% | 79% | – | – | – |
| COc1cc(OC)c(/C=C/S(=O)(=O)Cc2ccc(OC)c(NCC(=O)O)c2)c(OC)c1 [Rigosertib (ON-01910)] | 95% | 86% | 78% | – | – | – |
| Cc1cc(/C=C/C#N)cc(C)c1Nc1ccnc(Nc2ccc(C#N)cc2)n1 [Rilpivirine] | 139% | 116% | 136% | – | – | – |
| CC(N)C12CC3CC(CC(C3)C1)C2 (stereo not drawn) [Rimantadine] | 91% | 106% | 80% | – | – | – |
| Cc1c(C(=O)NN2CCCCC2)nn(-c2ccc(Cl)cc2Cl)c1-c1ccc(Cl)cc1 [Rimonabant] | 103% | 116% | 98% | – | – | – |
| COC(=O)N(C)c1c(N)nc(-c2nn(Cc3ccccc3F)c3ncccc23)nc1N [Riociguat (BAY 63-2521)] | 99% | 82% | 90% | – | – | – |
| C[C@H]1CNCCCN1S(=O)(=O)c1cccc2cncc(F)c12 [Ripasudil (K-115)] | 95% | 94% | 96% | – | – | – |

| SMILES | % Phosphatase Activity (compared to DMSO) PRL-1 (recombinant PRL-1; [1]) | % Phosphatase Activity (compared to DMSO) PRL-2 (recombinant PRL-2; [1]) | % Phosphatase Activity (compared to DMSO) PRL-3 (recombinant PRL-3; [1]) | % Phosphatase Activity (compared to DMSO) PRL-1 (recombinant PRL-1) | % Phosphatase Activity (compared to DMSO) PRL-2 (recombinant PRL-2) | % Phosphatase Activity (compared to DMSO) PRL-3 (recombinant PRL-3) |
| --- | --- | --- | --- | --- | --- | --- |
| Cc1nc2n(c(=O)c1CCN1CCC(c3noc4cc(F)ccc34)CC1)CCCC2 [Risperidone] | 104% | 94% | 88% | – | – | – |
| CC(NCCc1ccc(O)cc1)C(O)c1ccc(O)cc1 (stereo not drawn) [Ritodrine HCl] | 113% | 98% | 83% | – | – | – |
| CC(C)c1nc(CN(C)C(=O)N[C@H](C(=O)N[C@@H](Cc2ccccc2)C[C@H](O)[C@H](Cc2ccccc2)NC(=O)OCc2cncs2)C(C)C)cs1 [Ritonavir] | 103% | 108% | 90% | – | – | – |
| O=C(NC[C@H]1CN(c2ccc(N3CCOCC3=O)cc2)C(=O)O1)c1ccc(Cl)s1 [Rivaroxaban] | 98% | 106% | 92% | – | – | – |
| CCN(C)C(=O)Oc1cccc([C@H](C)N(C)C)c1 [Rivastigmine Tartrate] | 95% | 107% | 79% | – | – | – |
| CCN(C)C(=O)Oc1cccc([C@H](C)N(C)C)c1 [Rivastigmine] | 98% | 94% | 92% | – | – | – |
| CN(C)CCc1c[nH]c2ccc(Cn3cncn3)cc12 [Rizatriptan Benzoate] | 98% | 103% | 90% | – | – | – |
| O=C(CCCCCCNC(=O)c1cnc(N(c2ccccc2)c2ccccc2)nc1)NO [Rocilinostat (ACY-1215)] | 102% | 98% | 97% | – | – | – |
| C=CC[N+]1([C@H]2C[C@H]3[C@@H]4CC[C@H]5C[C@H](O)[C@@H](N6CCOCC6)C[C@]5(C)[C@H]4CC[C@]3(C)[C@H]2OC(C)=O)CCCC1 [Rocuronium Bromide] | 100% | 106% | 90% | – | – | – |
| CS(=O)(=O)c1ccc(C2=C(c3ccccc3)C(=O)OC2)cc1 [Rofecoxib] | 110% | 120% | 92% | – | – | – |
| O=C(Nc1c(Cl)cncc1Cl)c1ccc(OC(F)F)c(OCC2CC2)c1 [Roflumilast] | 107% | 101% | 87% | – | – | – |
| COc1ccc(C2CNC(=O)C2)cc1OC1CCCC1 (stereo not drawn) [Rolipram] | 99% | 104% | 77% | – | – | – |
| Cn1c([N+](=O)[O-])cnc1COC(N)=O [Ronidazole] | 86% | 95% | 62% | – | – | – |
| CCCN(CCC)CCc1cccc2c1CC(=O)N2 [Ropinirole HCl] | 103% | 122% | 78% | – | – | – |
| CCCN1CCCC[C@H]1C(=O)Nc1c(C)cccc1C [Ropivacaine HCl] | 100% | 110% | 80% | – | – | – |
| CC[C@H](CO)Nc1nc(NCc2ccccc2)c2ncn(C(C)C)c2n1 [Roscovitine (Seliciclib,CYC202)] | – | – | – | 108% | 111% | 96% |
| CN(CCOc1ccc(CC2SC(=O)NC2=O)cc1)c1ccccn1.Cl (stereo not drawn) [Rosiglitazone HCl] | 103% | 116% | 79% | – | – | – |
| CN(CCOc1ccc(CC2SC(=O)NC2=O)cc1)c1ccccn1 (stereo not drawn) [Rosiglitazone maleate] | 104% | 113% | 87% | – | – | – |
